Measurements: US8883782B2, “Spiro-tetracyclic ring compounds as beta-secretase modulators and methods of use” (Amgen Inc., priority 2010, dated 2014)
Read-outs that look alike come from different tables or passages of the source.

Tests used:
[1] = target: Beta Secretase enzyme (BACE) (Homo sapiens, UniProt P56817); assay: In vitro enzymatic BACE FRET (fluorescence resonance energy transfer) assay; assay type: biochemical; conditions: average IC50, enzyme assay; read-out: BACE 1 FRET assay
How it was run: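 Cleavage of a 50 nM fluorophore/quencher peptide FRET substrate by BACE for 1 h in 0.05 M acetate pH 4.2, 10% DMSO, 100 uM genapol. Reaction stopped with Tris to neutral pH before fluorescence reading.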

[2] = system: Aβ40 in conditioned medium of cells stably expressing Amyloid Precursor Protein (APP); assay: In vitro BACE cell-based assay (Aβ40 in conditioned medium, sandwich ELISA); conditions: read-out: HEK cell assay
How it was run: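 Conditioned medium from stably APP-expressing cells treated with compound dose series is assayed for Aβ40 by sandwich ELISA with time-resolved fluorescence detection. IC50 is calculated from percent inhibition of Aβ40 against compound concentration.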

[3] = Homo sapiens, HEK293, average IC50
[4] = Homo sapiens, HEK293, average IC50, HEK cells

Beta Secretase enzyme (BACE), sequence (P56817 46-501, species assumed): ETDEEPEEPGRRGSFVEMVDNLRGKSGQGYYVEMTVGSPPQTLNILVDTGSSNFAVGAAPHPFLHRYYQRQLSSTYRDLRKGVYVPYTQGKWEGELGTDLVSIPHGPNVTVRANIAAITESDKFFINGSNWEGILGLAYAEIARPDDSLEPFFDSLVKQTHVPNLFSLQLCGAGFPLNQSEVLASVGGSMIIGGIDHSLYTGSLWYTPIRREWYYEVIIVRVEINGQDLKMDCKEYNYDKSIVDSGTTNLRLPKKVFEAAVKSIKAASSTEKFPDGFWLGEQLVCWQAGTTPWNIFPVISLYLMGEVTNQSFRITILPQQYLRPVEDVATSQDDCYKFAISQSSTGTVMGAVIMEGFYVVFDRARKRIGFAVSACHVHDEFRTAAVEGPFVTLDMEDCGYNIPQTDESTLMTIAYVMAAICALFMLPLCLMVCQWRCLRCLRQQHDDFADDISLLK

| SMILES | IC50 [1] [µM] | IC50 [2, 3] [µM] | IC50 [2, 4] [µM] | IC50 [2] [µM] |
| --- | --- | --- | --- | --- |
| Cc1ccc(-c2cnc3c(c2)[C@]2(COC(N)=N2)c2cc(OCc4cccnc4)ccc2O3)cn1 [Example 977, (5S)-3-(6-methyl-3-pyridinyl)-7-(3-pyridinylmethoxy)spiro[chromeno[2,3-b]pyridine-5,4′-[1,3]oxazol]-2′-amine] | 0.0519 | 0.43 | – | – |
| NC1=N[C@@]2(CO1)c1cc(-c3cccnc3F)ccc1Oc1cnc(C3CCCCC3)cc12 [Example 388, (5S)-3-cyclohexyl-7-(2-fluoro-3-pyridinyl)spiro[chromeno[2,3-c]pyridine-5,4′-[1,3]oxazol]-2′-amine] | 0.0029 | – | 0.107 | – |
| NC1=N[C@@]2(CO1)c1cc(OCc3ccncc3)ccc1Oc1ncc(C3=CCOCC3)cc12 [Example 970, (5S)-3-(3,6-dihydro-2H-pyran-4-yl)-7-(4-pyridinylmethoxy)spiro[chromeno[2,3-b]pyridine-5,4′-[1,3]oxazol]-2′-amine] | 0.112 | – | 0.455 | – |
| NC1=N[C@@]2(CO1)c1cc(-c3cccnc3F)ccc1Oc1cnc(N3CCCC(F)(F)C3)cc12 [Example 430, (5S)-3-(3,3-difluoro-1-piperidinyl)-7-(2-fluoro-3-pyridinyl)spiro[chromeno[2,3-c]pyridine-5,4′-[1,3]oxazol]-2′-amine] | 0.0006 | – | 0.0069 | – |
| NC1=N[C@]2(CS1)c1cc(-c3cccnc3F)ccc1Oc1cnc(-c3ccnc(F)c3)cc12 [Example 992, (5R)-7-(2-fluoro-3-pyridinyl)-3-(2-fluoro-4-pyridinyl)spiro[chromeno[2,3-c]pyridine-5,4′-[1,3]thiazol]-2′-amine] | 0.0425 | 1.83 | – | – |
| NC1=N[C@]2(CS1)c1cc(-c3cccnc3F)ccc1Oc1ncc(C3=CCOCC3)cc12 [Example 577, (5R)-3-(3,6-dihydro-2H-pyran-4-yl)-7-(2-fluoro-3-pyridinyl)spiro[chromeno[2,3-b]pyridine-5,4′-[1,3]thiazol]-2′-amine] | 0.0017 | – | 0.0164 | – |
| COc1nc(-c2cccnc2)cc2c1Oc1ccc(-c3cccnc3)cc1[C@@]21COC(N)=N1 [Example 490, (5S)-1-methoxy-3,7-di-3-pyridinylspiro[chromeno[2,3-c]pyridine-5,4′-[1,3]oxazol]-2′-amine] | 0.007 | – | 0.0226 | – |
| COc1nc(C2=CCOCC2)cc2c1Oc1ccc(-c3cccnc3)cc1[C@@]21COC(N)=N1 [Example 840, (5S)-3-(3,6-dihydro-2H-pyran-4-yl)-1-methoxy-7-(3-pyridinyl)spiro[chromeno[2,3-c]pyridine-5,4′-[1,3]oxazol]-2′-amine] | 0.0043 | 0.015 | – | – |
| CC1(C)C[C@@H](c2cnc3c(c2)[C@]2(COC(N)=N2)c2cc(-c4cccnc4F)ccc2O3)CCO1 [Example 470, (5S)-3-((4S)-2,2-dimethyltetrahydro-2H-pyran-4-yl)-7-(2-fluoro-3-pyridinyl)spiro[chromeno[2,3-b]pyridine-5,4′-[1,3]oxazol]-2′-amine] | 0.0033 | – | 0.0149 | – |
| CC1(C#Cc2cc3c(cn2)Oc2ccc(-c4cc(Cl)cnc4F)cc2[C@@]32COC(N)=N2)COC1 [Example 158, (5S)-7-(5-chloro-2-fluoro-3-pyridinyl)-3-((3-methyl-3-oxetanyl)ethynyl)spiro[chromeno[2,3-c]pyridine-5,4′-[1,3]oxazol]-2′-amine] | 0.001 | 0.0116 | – | – |
| CC1(C#Cc2cc3c(c(F)n2)Oc2ccc(-c4cccnc4F)cc2[C@]32COC(N)=N2)COC1 [Example 737, (5R)-1-fluoro-7-(2-fluoro-3-pyridinyl)-3-((3-methyl-3-oxetanyl)ethynyl)spiro[chromeno[2,3-c]pyridine-5,4′-[1,3]oxazol]-2′-amine] | 0.116 | 4.33 | – | – |
| Cc1ccc(Oc2ccc3c(c2)[C@@]2(COC(N)=N2)c2cc(N4CCOCC4)cc(F)c2O3)nc1 [Example 1058, (4S)-4′-fluoro-7′-((5-methyl-2-pyridinyl)oxy)-2′-(4-morpholinyl)spiro[1,3-oxazole-4,9′-xanthen]-2-amine] | 0.0507 | 0.604 | – | – |
| CC1(COc2cc(F)c3c(c2)[C@]2(COC(N)=N2)c2cc(-c4cccnc4)c(F)cc2O3)COC1 [Example 294, (4S)-3′,5′-difluoro-7′-((3-methyl-3-oxetanyl)methoxy)-2′-(3-pyridinyl)spiro[1,3-oxazole-4,9′-xanthen]-2-amine] | 0.0611 | 0.612 | – | – |
| Cc1ccc(-c2ccc3c(c2)[C@@]2(COC(N)=N2)c2cc(C4=CCOCC4)cnc2O3)o1 [Example 324, (5S)-3-(3,6-dihydro-2H-pyran-4-yl)-7-(5-methyl-2-furanyl)spiro[chromeno[2,3-b]pyridine-5,4′-[1,3]oxazol]-2′-amine] | 0.042 | 0.158 | – | – |
| Cc1ccncc1-c1ccc2c(c1)[C@@]1(COC(N)=N1)c1cc(C3=CCOCC3)ncc1O2 [Example 654, (5S)-3-(3,6-dihydro-2H-pyran-4-yl)-7-(4-methyl-3-pyridinyl)spiro[chromeno[2,3-c]pyridine-5,4′-[1,3]oxazol]-2′-amine] | 0.0061 | – | 0.013 | – |
| NC1=N[C@@]2(CO1)c1cc(-c3cncc(F)c3)ccc1Oc1c2cc(C2=CCOCC2)nc1F [Example 615, (5S)-3-(3,6-dihydro-2H-pyran-4-yl)-1-fluoro-7-(5-fluoro-3-pyridinyl)spiro[chromeno[2,3-c]pyridine-5,4′-[1,3]oxazol]-2′-amine] | 0.0003 | – | 0.002 | – |
| CC1(COc2cc(F)c3c(c2)[C@]2(CSC(N)=N2)c2cc(-c4cncnc4)c(F)cc2O3)COC1 [Example 875, (4S)-3′,5′-difluoro-7′-((3-methyl-3-oxetanyl)methoxy)-2′-(5-pyrimidinyl)spiro[1,3-thiazole-4,9′-xanthen]-2-amine] | 0.0005 | – | 0.008 | – |
| COc1cc2c(c(F)c1F)Oc1ccc(Br)cc1[C@@]21COC(N)=N1 [Example 1003, (4S)-7′-bromo-3′,4′-difluoro-2′-methoxyspiro[1,3-oxazole-4,9′-xanthen]-2-amine] | 1.09 | ≥ 10 | – | – |
| CC(C)(C)/C=C/c1ccc2c(c1)[C@]1(COC(N)=N1)c1cc(-c3cncnc3)ncc1O2 [Example 384, (5R)-7-((1E)-3,3-dimethyl-1-buten-1-yl)-3-(5-pyrimidinyl)spiro[chromeno[2,3-c]pyridine-5,4′-[1,3]oxazol]-2′-amine] | 0.004 | – | 0.084 | – |
| CC1(C)C=C(c2cnc3c(c2)[C@]2(COC(N)=N2)c2c(ccc(-c4cncnc4)c2F)O3)CCO1 [Example 352, (5R)-3-(6,6-dimethyl-3,6-dihydro-2H-pyran-4-yl)-6-fluoro-7-(5-pyrimidinyl)spiro[chromeno[2,3-b]pyridine-5,4′-[1,3]oxazol]-2′-amine] | 0.0028 | 0.0194 | – | – |
| Cc1ccnn1-c1cc(F)c2c(c1)[C@]1(COC(N)=N1)c1cc(O)ccc1O2 [Example 631, (4S)-2-amino-5′-fluoro-7′-(5-methyl-1H-pyrazol-1-yl)spiro[1,3-oxazole-4,9′-xanthen]-2′-ol] | 0.0214 | – | 0.184 | – |
| CC#Cc1cncc(-c2ccc3c(c2)[C@@]2(COC(N)=N2)c2cc(C4=CCOCC4)nc(OC)c2O3)c1 [Example 835, (5S)-3-(3,6-dihydro-2H-pyran-4-yl)-1-methoxy-7-(5-(1-propyn-1-yl)-3-pyridinyl)spiro[chromeno[2,3-c]pyridine-5,4′-[1,3]oxazol]-2′-amine] | 0.0006 | 0.007 | – | – |
| CC#Cc1cncc(-c2ccc3c(c2)[C@@]2(COC(N)=N2)c2cc(-c4cnn(C)c4)cnc2O3)c1 [Example 944, (5S)-3-(1-methyl-1H-pyrazol-4-yl)-7-(5-(1-propyn-1-yl)-3-pyridinyl)spiro[chromeno[2,3-b]pyridine-5,4′-[1,3]oxazol]-2′-amine] | 0.0005 | – | 0.001 | – |
| CNC(=O)c1ccc(F)c(-c2ccc3c(c2)[C@@]2(COC(N)=N2)c2cc(C4=CCOCC4)cnc2O3)c1 [Example 500, 3-((5S)-2′-amino-3-(3,6-dihydro-2H-pyran-4-yl)spiro[chromeno[2,3-b]pyridine-5,4′-[1,3]oxazol]-7-yl)-4-fluoro-N-methylbenzamide] | 0.0117 | – | 0.0368 | – |
| CC1(C)CCN(c2cnc3c(c2)[C@]2(COC(N)=N2)c2cc(C#CC4CC4)ccc2O3)C1 [Example 182, (5S)-7-(cyclopropylethynyl)-3-(3,3-dimethyl-1-pyrrolidinyl)spiro[chromeno[2,3-b]pyridine-5,4′-[1,3]oxazol]-2′-amine] | 0.0031 | 0.022 | – | – |
| NC1=N[C@@]2(CO1)c1cc(-c3c(F)ccnc3F)ccc1Oc1cnc([C@H]3CCCOC3)cc12 (mixture of isomers) [Example 909, (5S)-7-(2,4-difluoro-3-pyridinyl)-3-((3R)-tetrahydro-2H-pyran-3-yl)spiro[chromeno[2,3-c]pyridine-5,4′-[1,3]oxazol]-2′-amine, (5S)-7-(2,4-difluoro-3-pyridinyl)-3-((3S)-tetrahydro-2H-pyran-3-yl)spiro[chromeno[2,3-c]pyridine-5,4′-[1,3]oxazol]-2′-amine] | 0.0198 | – | – | 0.266 |
| NC1=N[C@@]2(CO1)c1cc(-c3cccnc3F)ccc1Oc1cnc(-c3cncnc3)cc12 [Example 571, (5S)-7-(2-fluoro-3-pyridinyl)-3-(5-pyrimidinyl)spiro[chromeno[2,3-c]pyridine-5,4′-[1,3]oxazol]-2′-amine] | 0.0066 | – | 0.11 | – |
| COc1cncc(-c2ccc3c(c2)[C@@]2(COC(N)=N2)c2cc(C4CCOCC4)cc(F)c2O3)c1 [Example 937, (4S)-4′-fluoro-7′-(5-methoxy-3-pyridinyl)-2′-(tetrahydro-2H-pyran-4-yl)spiro[1,3-oxazole-4,9′-xanthen]-2-amine] | 0.0017 | – | 0.028 | – |
